Among the data in ChEMBL document CHEMBL3861941, “Discovery of 4,6-disubstituted pyrimidines as potent inhibitors of the heat shock factor 1 (HSF1) stress pathway and CDK9” (Medchemcomm, 2016) are IC50 values, retold here.

The target in one assay is CDK9/cyclin T1 (Homo sapiens, UniProt P50750).
Assay [1] is described as follows: Cytotoxicity against human U2OS cells assessed as growth inhibition after 96 hrs by SRB assay. The format is functional, cell-based. On the technique in general: Sulforhodamine B stains cellular protein and so reports cell mass.
The target in assay [2] is Cyclin-dependent kinase 2/cyclin E1 (Homo sapiens, UniProt P24941). As to the kind of experiment: Inhibition of recombinant full-length human C-terminal His6-tagged CDK2/recombinant full-length human N-terminal GST-tagged cyclin E using fluorescein-QSPKKG-CONH2 as substrate after 60 mins by off-chip mobility shift assay. In kind it is protein-complex assay.

Chain of CDK9/cyclin T1 (O60563 whole entry): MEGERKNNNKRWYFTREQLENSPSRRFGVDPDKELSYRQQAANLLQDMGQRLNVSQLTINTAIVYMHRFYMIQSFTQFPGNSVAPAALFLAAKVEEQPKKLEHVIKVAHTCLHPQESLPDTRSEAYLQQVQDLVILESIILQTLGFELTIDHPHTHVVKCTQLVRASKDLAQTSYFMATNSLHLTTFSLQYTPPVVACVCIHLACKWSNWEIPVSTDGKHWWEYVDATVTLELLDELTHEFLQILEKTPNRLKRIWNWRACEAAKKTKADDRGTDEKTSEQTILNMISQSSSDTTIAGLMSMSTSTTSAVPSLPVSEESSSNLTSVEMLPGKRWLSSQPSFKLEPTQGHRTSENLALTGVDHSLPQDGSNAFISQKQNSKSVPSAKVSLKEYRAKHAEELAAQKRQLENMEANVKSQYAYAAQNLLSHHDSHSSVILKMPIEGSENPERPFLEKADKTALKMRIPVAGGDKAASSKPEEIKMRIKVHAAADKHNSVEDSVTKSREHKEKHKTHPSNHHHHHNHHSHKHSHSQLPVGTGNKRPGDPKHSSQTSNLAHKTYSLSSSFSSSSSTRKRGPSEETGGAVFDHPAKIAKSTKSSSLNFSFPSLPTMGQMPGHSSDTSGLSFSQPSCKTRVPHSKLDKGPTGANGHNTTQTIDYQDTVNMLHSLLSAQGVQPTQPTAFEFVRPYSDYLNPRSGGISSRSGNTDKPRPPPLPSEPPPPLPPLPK
Chain of CDK9/cyclin T1 (P50750 whole entry): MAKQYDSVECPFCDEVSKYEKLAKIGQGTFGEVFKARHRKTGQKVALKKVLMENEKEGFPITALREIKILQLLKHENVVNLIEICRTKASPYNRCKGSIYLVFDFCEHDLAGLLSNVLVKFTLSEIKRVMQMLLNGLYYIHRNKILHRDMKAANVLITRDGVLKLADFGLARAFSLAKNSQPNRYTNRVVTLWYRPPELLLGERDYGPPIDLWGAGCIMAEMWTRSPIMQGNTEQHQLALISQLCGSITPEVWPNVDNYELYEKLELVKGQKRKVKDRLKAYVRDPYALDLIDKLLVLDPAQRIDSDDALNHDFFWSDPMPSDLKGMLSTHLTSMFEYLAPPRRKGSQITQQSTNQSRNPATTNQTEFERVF

Turning to `c1cnc2ncn(-c3cc(Nc4ccc(OCCN5CCCCC5)cn4)ncn3)c2c1`, the IC50 at CDK9/cyclin T1 was 3 nM; in assay [1], 5 nM. Regarding `Cc1c(Nc2ccc(OCCN(C)C)cn2)ncnc1-n1cnc2ccccc21`, the IC50 in assay [2] came out at 65800 nM.

The IC50 is the midpoint of a concentration-inhibition curve.
